Measured values reported in paper PMC4620497 (Scientific Reports, 2015).

Tests used:
[1] = molecular target: T1, JAK1(JH2domain-pseudokinase) (Homo sapiens, UniProt P23458); experiment: KINOMEscan panel screen; assay type: binding; settings: read-out: Percent Control(%)
T1 construct: JAK1(JH2domain-pseudokinase); purchased DiscoveRx KINOMEscan (Ambit Biosciences)

CLK1 = molecular target: T2, CLK1 (Homo sapiens, UniProt P49759); experiment: KINOMEscan panel screen; assay type: binding; settings: read-out: Percent Control(%)
T2 construct: purchased DiscoveRx KINOMEscan (Ambit Biosciences)

PRP4 = molecular target: T3, PRP4 (Homo sapiens, UniProt Q13523); experiment: KINOMEscan panel screen; assay type: binding; settings: read-out: Percent Control(%)
T3 construct: purchased DiscoveRx KINOMEscan (Ambit Biosciences)
Protocol: (§1) In vitro KINOMEscan kinase binding assays (Ambit Biosciences) were employed to determine the binding affinity (Kd) of compounds[41][42].
(§2) Supplementary Table S3. Matrix of compound screen for SKLB -677 obtained through service provided by DiscoveRX. The compound was screened at a concentration of 10μM. Results are given in %control.
(§3) KINOMEscan Gene Symbol Entrez Gene Percent Compound
(§4) Symbol Control(%) Concentration (μM) […]

CDC2L5 = molecular target: T4, CDC2L5 (Homo sapiens, UniProt Q14004); experiment: KINOMEscan panel screen; assay type: binding; settings: read-out: Percent Control(%)
T4 construct: purchased DiscoveRx KINOMEscan (Ambit Biosciences)
Protocol: as §1, §2, §3, §4

BMPR2 = molecular target: T5, BMPR2 (Homo sapiens, UniProt Q13873); experiment: KINOMEscan panel screen; assay type: binding; settings: read-out: Percent Control(%)
T5 construct: purchased DiscoveRx KINOMEscan (Ambit Biosciences)

STK36 = molecular target: T6, STK36 (Homo sapiens, UniProt Q9NRP7); experiment: KINOMEscan panel screen; assay type: binding; settings: read-out: Percent Control(%)
T6 construct: purchased DiscoveRx KINOMEscan (Ambit Biosciences)

MAP3K3 = molecular target: T7, MAP3K3 (Homo sapiens, UniProt Q99759); experiment: KINOMEscan panel screen; assay type: binding; settings: read-out: Percent Control(%)
T7 construct: purchased DiscoveRx KINOMEscan (Ambit Biosciences)

PRKX = molecular target: T8, PRKX (Homo sapiens, UniProt P51817); experiment: KINOMEscan panel screen; assay type: binding; settings: read-out: Percent Control(%)
T8 construct: purchased DiscoveRx KINOMEscan (Ambit Biosciences)

[2] = molecular target: T9, ABL1(H396P)-nonphosphorylated (Homo sapiens, UniProt P00519, H396P); experiment: KINOMEscan panel screen; assay type: binding; settings: read-out: Percent Control(%)
T9 construct: purchased DiscoveRx KINOMEscan (Ambit Biosciences)

CAMK2A = molecular target: T10, CAMK2A (Homo sapiens, UniProt Q9UQM7); experiment: KINOMEscan panel screen; assay type: binding; settings: read-out: Percent Control(%)
T10 construct: purchased DiscoveRx KINOMEscan (Ambit Biosciences)

BMX = molecular target: T11, BMX (Homo sapiens, UniProt P51813); experiment: KINOMEscan panel screen; assay type: binding; settings: read-out: Percent Control(%)
T11 construct: purchased DiscoveRx KINOMEscan (Ambit Biosciences)

ICK = molecular target: T12, ICK (Homo sapiens, UniProt Q9UPZ9); experiment: KINOMEscan panel screen; assay type: binding; settings: read-out: Percent Control(%)
T12 construct: purchased DiscoveRx KINOMEscan (Ambit Biosciences)

HUNK = molecular target: T13, HUNK (Homo sapiens, UniProt P57058); experiment: KINOMEscan panel screen; assay type: binding; settings: read-out: Percent Control(%)
T13 construct: purchased DiscoveRx KINOMEscan (Ambit Biosciences)

PIM3 = molecular target: T14, PIM3 (Homo sapiens, UniProt Q86V86); experiment: KINOMEscan panel screen; assay type: binding; settings: read-out: Percent Control(%)
T14 construct: purchased DiscoveRx KINOMEscan (Ambit Biosciences)

[3] = molecular target: T15, RSK3(Kin.Dom.2-C-terminal) (Homo sapiens, UniProt Q15349); experiment: KINOMEscan panel screen; assay type: binding; settings: read-out: Percent Control(%)
T15 construct: RSK3(Kin.Dom.2-C-terminal); purchased DiscoveRx KINOMEscan (Ambit Biosciences)

TNIK = molecular target: T16, TNIK (Homo sapiens, UniProt Q9UKE5); experiment: KINOMEscan panel screen; assay type: binding; settings: read-out: Percent Control(%)
T16 construct: purchased DiscoveRx KINOMEscan (Ambit Biosciences)

MET = molecular target: T17, MET (Homo sapiens, UniProt P08581); experiment: KINOMEscan kinase binding assay (Kd)
T17 construct: purchased DiscoveRx KINOMEscan (Ambit Biosciences)

MKK7 = molecular target: T18, MKK7 (Homo sapiens, UniProt O14733); experiment: KINOMEscan panel screen; assay type: binding; settings: read-out: Percent Control(%)
T18 construct: purchased DiscoveRx KINOMEscan (Ambit Biosciences)

PRKCE = molecular target: T19, PRKCE (Homo sapiens, UniProt Q02156); experiment: KINOMEscan panel screen; assay type: binding; settings: read-out: Percent Control(%)
T19 construct: purchased DiscoveRx KINOMEscan (Ambit Biosciences)

EPHA5 = molecular target: T20, EPHA5 (Homo sapiens, UniProt P54756); experiment: KINOMEscan panel screen; assay type: binding; settings: read-out: Percent Control(%)
T20 construct: purchased DiscoveRx KINOMEscan (Ambit Biosciences)

TGFBR1 = molecular target: T21, TGFBR1 (Homo sapiens, UniProt P36897); experiment: KINOMEscan panel screen; assay type: binding; settings: read-out: Percent Control(%)
T21 construct: DNA tag (qPCR read-out); purchased Ambit Biosciences (KINOMEscan service)

EGFR(L858R,T790M) = molecular target: T22, EGFR(L858R,T790M) (Homo sapiens, UniProt P00533, L858R/T790M); experiment: KINOMEscan panel screen; assay type: binding; settings: read-out: Percent Control(%)
T22 construct: purchased DiscoveRx KINOMEscan (Ambit Biosciences)

MKNK1 = molecular target: T23, MKNK1 (Homo sapiens, UniProt Q9BUB5); experiment: KINOMEscan panel screen; assay type: binding; settings: read-out: Percent Control(%)
T23 construct: purchased DiscoveRx KINOMEscan (Ambit Biosciences)

PC-9 = experiment: MTT cell viability assay; settings: Homo sapiens, PC-9, 72 h
PIK3CA(E545A) = molecular target: T24, PIK3CA(E545A) (Homo sapiens, UniProt P42336, E545A); experiment: KINOMEscan panel screen; assay type: binding; settings: read-out: Percent Control(%)
T24 construct: purchased DiscoveRx KINOMEscan (Ambit Biosciences)

MRCKA = molecular target: T25, MRCKA (Homo sapiens, UniProt Q5VT25); experiment: KINOMEscan panel screen; assay type: binding; settings: read-out: Percent Control(%)
T25 construct: purchased DiscoveRx KINOMEscan (Ambit Biosciences)

PIM2 = molecular target: T26, PIM2 (Homo sapiens, UniProt Q9P1W9); experiment: KINOMEscan panel screen; assay type: binding; settings: read-out: Percent Control(%)
T26 construct: purchased DiscoveRx KINOMEscan (Ambit Biosciences)

PIK3CG = molecular target: T27, PIK3CG (Homo sapiens, UniProt P48736); experiment: KINOMEscan panel screen; assay type: binding; settings: read-out: Percent Control(%)
T27 construct: purchased DiscoveRx KINOMEscan (Ambit Biosciences)

SIK = molecular target: T28, SIK (Homo sapiens, UniProt P57059); experiment: KINOMEscan panel screen; assay type: binding; settings: read-out: Percent Control(%)
T28 construct: purchased DiscoveRx KINOMEscan (Ambit Biosciences)

NDR1 = molecular target: T29, NDR1 (Homo sapiens, UniProt Q15208); experiment: KINOMEscan panel screen; assay type: binding; settings: read-out: Percent Control(%)
T29 construct: purchased DiscoveRx KINOMEscan (Ambit Biosciences)

MEK5 = molecular target: T30, MEK5 (Homo sapiens, UniProt Q13163); experiment: KINOMEscan panel screen; assay type: binding; settings: read-out: Percent Control(%)
T30 construct: purchased DiscoveRx KINOMEscan (Ambit Biosciences)

CAMK1G = molecular target: T31, CAMK1G (Homo sapiens, UniProt Q96NX5); experiment: KINOMEscan panel screen; assay type: binding; settings: read-out: Percent Control(%)
T31 construct: purchased DiscoveRx KINOMEscan (Ambit Biosciences)

WEE1 = molecular target: T32, WEE1 (Homo sapiens, UniProt P30291); experiment: KINOMEscan panel screen; assay type: binding; settings: read-out: Percent Control(%)
T32 construct: purchased DiscoveRx KINOMEscan (Ambit Biosciences)

YES = molecular target: T33, YES (Homo sapiens, UniProt P07947); experiment: KINOMEscan panel screen; assay type: binding; settings: read-out: Percent Control(%)
T33 construct: purchased DiscoveRx KINOMEscan (Ambit Biosciences)

RET(V804L) = molecular target: T34, RET(V804L) (Homo sapiens, UniProt P07949, V804L); experiment: KINOMEscan panel screen; assay type: binding; settings: read-out: Percent Control(%)
T34 construct: purchased DiscoveRx KINOMEscan (Ambit Biosciences)

MST4 = molecular target: T35, MST4 (Homo sapiens, UniProt Q9P289); experiment: KINOMEscan panel screen; assay type: binding; settings: read-out: Percent Control(%)
T35 construct: purchased DiscoveRx KINOMEscan (Ambit Biosciences)

MKNK2 = molecular target: T36, MKNK2 (Homo sapiens, UniProt Q9HBH9); experiment: KINOMEscan panel screen; assay type: binding; settings: read-out: Percent Control(%)
T36 construct: purchased DiscoveRx KINOMEscan (Ambit Biosciences)

B16 = experiment: MTT cell viability assay; settings: Mus musculus, B16, 72 h
ROCK1 = ROCK1 (Homo sapiens, UniProt Q13464); experiment: KINOMEscan kinase binding assay (Kd)

T24 sequence (P42336 whole entry E545A): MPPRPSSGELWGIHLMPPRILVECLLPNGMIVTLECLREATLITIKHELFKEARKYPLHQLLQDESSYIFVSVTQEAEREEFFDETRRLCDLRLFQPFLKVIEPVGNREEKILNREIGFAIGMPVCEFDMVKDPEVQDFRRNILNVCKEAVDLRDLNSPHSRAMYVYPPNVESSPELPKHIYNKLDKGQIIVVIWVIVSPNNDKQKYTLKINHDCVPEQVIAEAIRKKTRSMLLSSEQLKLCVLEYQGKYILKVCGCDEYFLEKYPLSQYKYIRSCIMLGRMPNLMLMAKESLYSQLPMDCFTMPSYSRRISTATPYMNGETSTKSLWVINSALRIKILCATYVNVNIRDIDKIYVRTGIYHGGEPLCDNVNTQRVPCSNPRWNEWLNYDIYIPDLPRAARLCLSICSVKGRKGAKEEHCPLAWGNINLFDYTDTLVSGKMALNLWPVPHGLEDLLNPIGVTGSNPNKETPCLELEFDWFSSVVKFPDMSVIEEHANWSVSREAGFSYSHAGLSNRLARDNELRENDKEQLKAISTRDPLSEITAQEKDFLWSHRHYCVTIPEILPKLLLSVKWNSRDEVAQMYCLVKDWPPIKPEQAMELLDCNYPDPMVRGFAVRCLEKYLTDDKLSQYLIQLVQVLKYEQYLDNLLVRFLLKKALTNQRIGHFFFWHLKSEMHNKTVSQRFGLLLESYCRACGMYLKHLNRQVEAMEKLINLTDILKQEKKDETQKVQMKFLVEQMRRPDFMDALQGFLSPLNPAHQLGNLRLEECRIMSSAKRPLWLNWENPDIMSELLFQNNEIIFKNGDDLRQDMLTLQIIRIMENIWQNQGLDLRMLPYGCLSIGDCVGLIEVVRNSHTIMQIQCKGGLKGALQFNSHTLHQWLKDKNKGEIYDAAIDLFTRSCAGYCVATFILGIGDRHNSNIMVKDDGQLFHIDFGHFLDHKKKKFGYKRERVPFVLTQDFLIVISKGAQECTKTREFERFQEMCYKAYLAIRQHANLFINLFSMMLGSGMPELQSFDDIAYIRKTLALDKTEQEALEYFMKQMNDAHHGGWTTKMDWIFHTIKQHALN
T13 sequence (P57058 whole entry): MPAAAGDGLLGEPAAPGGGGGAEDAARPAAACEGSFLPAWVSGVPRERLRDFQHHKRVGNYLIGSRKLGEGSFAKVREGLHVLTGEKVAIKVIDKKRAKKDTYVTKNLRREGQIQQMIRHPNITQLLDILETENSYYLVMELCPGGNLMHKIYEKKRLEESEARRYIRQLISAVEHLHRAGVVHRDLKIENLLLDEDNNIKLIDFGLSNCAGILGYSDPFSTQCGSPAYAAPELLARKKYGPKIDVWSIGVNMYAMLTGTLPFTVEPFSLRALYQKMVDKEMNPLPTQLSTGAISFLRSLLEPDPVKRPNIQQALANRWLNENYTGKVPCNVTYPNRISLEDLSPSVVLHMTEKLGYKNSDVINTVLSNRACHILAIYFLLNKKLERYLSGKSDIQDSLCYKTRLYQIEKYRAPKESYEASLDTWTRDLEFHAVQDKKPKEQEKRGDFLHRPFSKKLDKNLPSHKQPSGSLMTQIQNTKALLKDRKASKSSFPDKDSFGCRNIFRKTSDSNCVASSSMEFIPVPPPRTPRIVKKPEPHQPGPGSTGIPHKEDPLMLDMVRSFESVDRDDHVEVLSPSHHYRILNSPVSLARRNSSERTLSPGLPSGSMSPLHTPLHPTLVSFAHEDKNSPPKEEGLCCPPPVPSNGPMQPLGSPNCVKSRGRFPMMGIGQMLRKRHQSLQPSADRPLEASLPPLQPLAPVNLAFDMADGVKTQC
T25 sequence (Q5VT25 whole entry): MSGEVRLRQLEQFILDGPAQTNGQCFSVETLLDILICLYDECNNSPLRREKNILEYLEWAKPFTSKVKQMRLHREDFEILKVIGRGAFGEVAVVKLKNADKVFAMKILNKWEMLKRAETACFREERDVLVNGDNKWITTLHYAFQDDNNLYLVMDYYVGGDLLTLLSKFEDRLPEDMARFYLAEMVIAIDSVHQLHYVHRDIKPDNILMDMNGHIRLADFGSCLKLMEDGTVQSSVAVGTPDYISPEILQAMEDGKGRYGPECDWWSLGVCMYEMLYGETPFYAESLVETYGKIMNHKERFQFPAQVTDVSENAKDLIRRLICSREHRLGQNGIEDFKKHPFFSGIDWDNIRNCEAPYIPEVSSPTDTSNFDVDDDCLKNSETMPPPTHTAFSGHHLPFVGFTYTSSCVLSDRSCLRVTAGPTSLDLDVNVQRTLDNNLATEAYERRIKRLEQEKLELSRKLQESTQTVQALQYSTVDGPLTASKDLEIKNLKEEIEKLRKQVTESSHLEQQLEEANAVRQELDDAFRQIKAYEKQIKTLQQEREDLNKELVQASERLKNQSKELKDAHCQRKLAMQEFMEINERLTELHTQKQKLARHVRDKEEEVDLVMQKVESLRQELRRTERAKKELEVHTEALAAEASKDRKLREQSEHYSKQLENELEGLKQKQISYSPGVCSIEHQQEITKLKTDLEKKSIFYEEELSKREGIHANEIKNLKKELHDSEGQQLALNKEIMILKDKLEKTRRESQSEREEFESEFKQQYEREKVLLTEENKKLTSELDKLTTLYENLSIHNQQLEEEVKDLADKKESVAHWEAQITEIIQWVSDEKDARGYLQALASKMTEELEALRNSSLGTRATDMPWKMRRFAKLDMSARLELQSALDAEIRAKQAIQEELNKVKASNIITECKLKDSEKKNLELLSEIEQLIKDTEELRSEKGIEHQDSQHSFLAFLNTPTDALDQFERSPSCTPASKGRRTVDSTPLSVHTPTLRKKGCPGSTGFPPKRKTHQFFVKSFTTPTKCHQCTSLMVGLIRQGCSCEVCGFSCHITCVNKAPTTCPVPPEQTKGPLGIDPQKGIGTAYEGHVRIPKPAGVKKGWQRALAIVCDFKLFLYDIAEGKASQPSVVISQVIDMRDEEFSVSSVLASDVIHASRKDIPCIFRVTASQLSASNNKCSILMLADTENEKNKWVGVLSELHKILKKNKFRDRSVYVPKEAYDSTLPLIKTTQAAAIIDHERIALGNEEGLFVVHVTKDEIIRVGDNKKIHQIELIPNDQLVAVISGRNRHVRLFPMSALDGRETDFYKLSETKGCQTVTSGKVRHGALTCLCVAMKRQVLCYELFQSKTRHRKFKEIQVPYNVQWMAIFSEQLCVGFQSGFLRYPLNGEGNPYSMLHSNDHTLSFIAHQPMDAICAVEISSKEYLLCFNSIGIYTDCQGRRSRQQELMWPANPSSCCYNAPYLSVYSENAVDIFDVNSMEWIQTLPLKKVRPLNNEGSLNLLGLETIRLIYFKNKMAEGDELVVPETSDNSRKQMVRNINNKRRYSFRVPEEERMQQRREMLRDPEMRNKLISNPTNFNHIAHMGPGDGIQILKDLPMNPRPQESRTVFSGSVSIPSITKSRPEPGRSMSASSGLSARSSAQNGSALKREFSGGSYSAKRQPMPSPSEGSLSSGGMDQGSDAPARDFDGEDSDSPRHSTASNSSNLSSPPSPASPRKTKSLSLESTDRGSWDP
T19 sequence (Q02156 whole entry): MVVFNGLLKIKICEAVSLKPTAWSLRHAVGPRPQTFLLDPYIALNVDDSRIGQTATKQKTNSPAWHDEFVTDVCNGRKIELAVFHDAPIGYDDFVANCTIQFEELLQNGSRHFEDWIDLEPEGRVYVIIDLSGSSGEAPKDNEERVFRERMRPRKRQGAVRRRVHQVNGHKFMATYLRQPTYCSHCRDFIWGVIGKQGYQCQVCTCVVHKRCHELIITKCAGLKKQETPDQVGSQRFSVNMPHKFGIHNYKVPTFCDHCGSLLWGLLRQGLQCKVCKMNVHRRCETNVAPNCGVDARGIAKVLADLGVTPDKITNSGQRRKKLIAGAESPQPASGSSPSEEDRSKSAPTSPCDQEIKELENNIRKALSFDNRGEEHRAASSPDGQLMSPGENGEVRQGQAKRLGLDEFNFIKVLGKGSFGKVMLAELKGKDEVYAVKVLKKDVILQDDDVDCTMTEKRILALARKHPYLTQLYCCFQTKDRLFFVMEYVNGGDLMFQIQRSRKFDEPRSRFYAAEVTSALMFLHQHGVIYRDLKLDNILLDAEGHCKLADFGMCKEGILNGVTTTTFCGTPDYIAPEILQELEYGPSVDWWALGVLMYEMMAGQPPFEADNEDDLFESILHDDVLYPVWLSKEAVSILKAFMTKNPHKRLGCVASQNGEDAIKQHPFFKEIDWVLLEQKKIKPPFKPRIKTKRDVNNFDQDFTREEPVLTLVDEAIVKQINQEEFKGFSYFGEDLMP
T10 sequence (Q9UQM7 whole entry): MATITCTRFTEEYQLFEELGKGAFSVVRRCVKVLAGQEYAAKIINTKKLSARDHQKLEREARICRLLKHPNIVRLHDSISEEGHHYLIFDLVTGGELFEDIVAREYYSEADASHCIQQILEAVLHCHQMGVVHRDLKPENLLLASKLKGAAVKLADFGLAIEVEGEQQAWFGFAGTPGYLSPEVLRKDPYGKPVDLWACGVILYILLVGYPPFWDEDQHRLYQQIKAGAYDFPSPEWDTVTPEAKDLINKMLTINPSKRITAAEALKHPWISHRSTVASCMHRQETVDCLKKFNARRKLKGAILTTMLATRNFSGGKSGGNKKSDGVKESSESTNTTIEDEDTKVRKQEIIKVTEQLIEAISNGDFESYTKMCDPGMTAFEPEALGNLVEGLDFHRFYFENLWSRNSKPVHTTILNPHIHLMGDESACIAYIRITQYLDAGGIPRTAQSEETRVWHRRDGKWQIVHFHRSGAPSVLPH
T1 sequence (P23458 583-855 limits assumed): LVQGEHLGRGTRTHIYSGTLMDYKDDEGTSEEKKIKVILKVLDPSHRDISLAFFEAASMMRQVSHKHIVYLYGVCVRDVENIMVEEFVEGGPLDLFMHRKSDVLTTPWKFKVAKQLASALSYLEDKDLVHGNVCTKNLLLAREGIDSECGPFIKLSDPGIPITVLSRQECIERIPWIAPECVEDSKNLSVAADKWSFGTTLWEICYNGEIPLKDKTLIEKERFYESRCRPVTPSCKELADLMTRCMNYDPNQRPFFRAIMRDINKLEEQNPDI

CC(C)(C)c1cc(NC(=O)Nc2ccc(Oc3ncnc4[nH]ncc34)c(F)c2)no1 [SKLB-677, 1-(4-(1H-pyrazolo[3,4-d]pyrimidin-4-yloxy)-3-fluorophenyl)-3-(5-tert-butylisoxazol-3-yl)urea] was tested, and the remaining binding at 10 µM [1] was 74%, the remaining binding at 10 µM (CLK1) was 5.8% and the remaining binding at 10 µM (PRP4) was 73%. For the same molecule, the remaining binding at 10 µM (CDC2L5) was 0.6%, the remaining binding at 10 µM (BMPR2) was 14% and the remaining binding at 10 µM (STK36) was 97%. It also gave a remaining binding at 10 µM (MAP3K3) of 100%, a remaining binding at 10 µM (PRKX) of 44% and a remaining binding at 10 µM [2] of 5.8%. The remaining binding at 10 µM (CAMK2A) was 73%, the remaining binding at 10 µM (BMX) was 73% and the remaining binding at 10 µM (ICK) was 42%. The remaining binding at 10 µM (HUNK) was 80%, the remaining binding at 10 µM (PIM3) was 40% and the remaining binding at 10 µM [3] was 19%. It also gave a remaining binding at 10 µM (TNIK) of 5.2%, a Kd (MET) of 0.22 µM and a remaining binding at 10 µM (MKK7) of 77%. For the same molecule, the remaining binding at 10 µM (PRKCE) was 90%, the remaining binding at 10 µM (EPHA5) was 0.7% and the remaining binding at 10 µM (TGFBR1) was 100%. The remaining binding at 10 µM (EGFR(L858R,T790M)) was 75%, the remaining binding at 10 µM (MKNK1) was 0.1% and the IC50 (PC-9) was 8.03 µM. For the same molecule, the remaining binding at 10 µM (PIK3CA(E545A)) was 86%, the remaining binding at 10 µM (MRCKA) was 100% and the remaining binding at 10 µM (PIM2) was 37%. For the same molecule, the remaining binding at 10 µM (PIK3CG) was 100%, the remaining binding at 10 µM (SIK) was 97% and the remaining binding at 10 µM (NDR1) was 58%. It also gave a remaining binding at 10 µM (MEK5) of 13%, a remaining binding at 10 µM (CAMK1G) of 48% and a remaining binding at 10 µM (WEE1) of 64%. The remaining binding at 10 µM (YES) was 27%, the remaining binding at 10 µM (RET(V804L)) was 0% and the remaining binding at 10 µM (MST4) was 24%. For the same molecule, the remaining binding at 10 µM (MKNK2) was 1%, the IC50 (B16) was > 10 µM and the Kd (ROCK1) was > 10 µM.
